Source: paper PMC5867665, “Targeting Multiple Effector Pathways in Pancreatic Ductal Adenocarcinoma with a G-Quadruplex-Binding Small Molecule” (Journal of Medicinal Chemistry, 2018)

What was measured:
[1] = test system: DNA human telomeric G4 sequence 5′-d(GGGTTAGGGTTAGGGTTAGGG)-3′; assay: Quantitative G4 binding (fluorescence anisotropy and direct fluorescence titrations)
Method: Quantitative binding estimates as KD values were obtained from fluorescence anisotropy titrations (MM41) and direct fluorescence titrations (CM03). The DNA human telomeric G4 sequence 5′-d([…])-3′ was used to enable direct comparisons to be made with the modeling studies. Both compounds bind with nanomolar affinity to this DNA G4, with a ∼3-fold difference between MM41 (20 ± 2 nM) and CM03 (67 ± 4 nM).
Human telomeric DNA G4 was prepared using oligonucleotides purchased from Integrated DNA Technologies (Coralville, IA, USA). The DNA purity and sequence was verified by mass spectrometry. Desalted oligonucleotide sequences were initially suspended in 150 mM NH4OAc (pH 6.8) in nuclease-free water to yield a final concentration of 1 mM and determined spectroscopically at 260 nm using the nearest-neighbor method. […]
Fluorescence anisotropy measurements were obtained on a Variant Cary Eclipse fluorescence spectrophotometer (Agilent Technologies, Santa Clara, CA, USA) equipped with a polarization attachment. […]
To determine dissociation constants, MM41 was added to a 3 mL volume of the experimental buffer (50 mM KCl, 10 mM Tris-HCl, 1 mM EDTA in nuclease-free water at 25 °C, pH 7.3) in a quartz fluorescence cuvette at a fixed concentration of 50 nM, and G4 was titrated into the cuvette. […] Each set of measurements were taken from a 50 s average reading measurement (PMT = 630 V). […]

PDAC MIA PaCa-2 cells = assay: 96 h SRB growth inhibition assay, MIA PaCa-2; format: cell-based, human; conditions: 96 h SRB IC50
Method: (§1) Compounds were screened with a 96 h SRB (sulforhodamine B) assay for their antiproliferative activity in a panel of human cancer cell lines comprising lung adenocarcinoma (A549), breast adenocarcinoma (MCF7), and PDAC (MIA PaCa-2 and PANC-1) cell lines, as well as a fetal lung fibroblast-like nononcogenic control cell line (WI-38) (Figure 1f). […] Gemcitabine is also active in these lines at low nanomolar levels, although less so in MIA PaCa-2 (IC50 19 ± 5 nM) and more so in BX-PC3 cells (6 ± 2 nM).
(§2) All cell lines were purchased from ATCC and maintained in appropriate medium supplemented with 10% fetal bovine serum (Invitrogen, UK), 2 mM L-glutamine (Invitrogen, Netherlands), and other components as specified by the suppliers. Cell lines were maintained at 37 °C, 5% CO2, and routinely passaged. Drugs were dissolved in H2O and filtered through 0.22 μm pore-size filter units (stock 10 mM) before addition to appropriate cell line media. Cellular growth inhibition was measured using the sulforhodamine B (SRB) assay in 96-well plates as described previously.[78] The 50% inhibitory concentrations (IC50) were determined by taking the mean absorbance at 540 nm for each drug concentration expressed as a percentage of the absorbance of untreated control wells.

[2] = test system: fetal lung fibroblast-like nononcogenic control cell line (WI-38); assay: 96 h SRB growth inhibition assay, WI-38; format: cell-based, human
Method: as §1, §2

## O=C1c2ccc3c4c(c(NCCN5CCCC5)cc(c24)C(=O)N1CCCN1CCOCC1)C(=O)N(CCCN1CCOCC1)C3=O [CM03, 2,7-bis(3-morpholinopropyl)-4-((2-(pyrrolidin-1-yl)ethyl)amino)benzo[lmn][3,8]phenanthroline-1,3,6,8(2H,7H)-tetraone]
[1]
  difference in KD between MM41 and CM03: ~3 fold
PDAC MIA PaCa-2 cells
  selectivity for MIA PaCa-2 compared to MCF-7 cells: > 20 fold
[2]
  less activity toward the WI-38 cell line (vs MM41): > 4 fold
